# Laboratory results: US20240335443A1, “IMIDAZOLOPYRIDAZINE OR PYRAZOLOPYRIMIDINE COMPOUNDS AND COMPOSITIONS” (Anrui Biomedical Technology (Guangzhou) Co., Ltd., priority 2021, published 2024)
# Read-outs that look alike come from different tables or passages of the source.
# How the values were obtained:
# [1] = test system: IL-23 induced STAT3 in HEK-Blue™ IL-23 cells; experiment: IL-23 induced STAT3 QUANTI-Blue reporter assay in HEK-Blue IL-23 cells; assay type: cell-based; conditions: IL-23 0.1 ng/mL, SEAP levels, read-out: IL23 reporter assay (IC50 nM)
# Method: Biological Example 2. IL-23 Induced STAT3 QUANTI-Blue in HEK-Blue™ IL-23 Cells
# HEK-Blue™ IL-23 cells were prepared at 2×10^5 cells/ml for adding 5000 cell/well and incubate plates containing compounds+cells for 1 hour at 37° C. Prepare IL-23 (treatment at final conc. 0.1 ng/mL) during incubation and add 2 ul per well of prepared cytokine in media to appropriate wells. The plate is incubated for overnight at 37° C. The next day, QUANTI-Blue solution is prepared. 18 ul of QUANTI-Blue solution per well is added into a new 384-well clear flat bottom plate, then add 2 ul of induced and treated HEK-Blue cell supernatant from overnight plate. Incubate the plate at 37° C. for 2 hours and determine SEAP levels.
# [2] = molecular target: T1, N-terminal His-tagged TYK2 pseudokinase domain (Homo sapiens, UniProt P29597); experiment: TYK2 JH2 domain SPA binding assay; conditions: displacement of H3 probe (20 nM), 30 min room temperature; class symbols
# T1 construct: the N-terminal His-tagged TYK2 pseudokinase domain; His (N); purchased Pharmaron
# T1 sequence (P29597 589-875 limits assumed): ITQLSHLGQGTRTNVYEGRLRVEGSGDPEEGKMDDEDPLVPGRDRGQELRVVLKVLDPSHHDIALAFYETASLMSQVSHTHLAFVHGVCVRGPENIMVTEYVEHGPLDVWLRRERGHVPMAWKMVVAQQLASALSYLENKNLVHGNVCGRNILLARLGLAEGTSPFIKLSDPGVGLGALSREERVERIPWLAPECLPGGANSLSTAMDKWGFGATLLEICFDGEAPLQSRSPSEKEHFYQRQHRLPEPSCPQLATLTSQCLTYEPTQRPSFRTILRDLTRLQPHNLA
# Method: TYK2 JH2 Domain Binding Assay
# After incubating at room temperature for 30 min, the inhibition was calculated by the displacement of [3H] 3 binding as determined by scintillation counting. Dose-response curves were generated to determine the concentration required to inhibit H3 probe binding by […] (IC50).
# [3] = HEK-Blue IL-23 cells, class symbols
# [4] = HEK-Blue IL-23, HEK-Blue IL-23 cells, class symbols
IC50 [2] [nM],Compound,"IC50 [1, 3] [nM]","IC50 [1, 4] [nM]","IC50 ([1]; HEK-Blue IL-23 cells, numeric value (control)) [nM]"
,"CNc1cc(Nc2cccn(-c3ccccn3)c2=O)nc2c(C(=O)NC(C)c3ncco3)cnn12 (single isomer, unassigned) [Compound 36a]",≥ 1000,,
,"CNc1cc(Nc2cccn(-c3ccn(C)n3)c2=O)nn2c(C(=O)N[C@@H]3C[C@H]4CCO[C@H]43)cnc12 [Compound 3a, N-((1R,5S,7R)-2-oxabicyclo[3.2.0]heptan-7-yl)-6-((1-(1-methyl-1H-pyrazol-3-yl)-2-oxo-1,2-dihydropyridin-3-yl)amino)-8-(methylamino)imidazo[1,2-b]pyridazine-3-carboxamide]",,< 10,
10 to 100,CNc1cc(Nc2cccn([C@H]3C[C@H](F)C3)c2=O)nn2c(C(=O)N[C@@H]3C[C@H]4CCO[C@H]43)cnc12 [Compound 90],,10 to 100,
10 to 100,CNc1cc(Nc2cccc3c2OCCC3)nc2c(C(=O)N[C@@H]3C[C@@H]4CCO[C@@H]43)cnn12 (racemic) [Compound 26],,10 to 100,
100 to 1000,"[2H]C([2H])([2H])Nc1cc(Nc2cccn(C3CCCC4(COC4)C3)c2=O)nn2c(C(=O)N[C@@H]3C[C@@H]3F)cnc12 (single isomer, unassigned) [Compound 75a]",100 to 1000,,
10 to 100,CNc1cc(Nc2cccn(C3C[C@H]4CC[C@@H](C3)O4)c2=O)nc2c(C(=O)N[C@@H]3C[C@H]4CCO[C@H]43)cnn12 (some centres unmarked) [Compound 76],,10 to 100,
100 to 1000,CNc1cc(Nc2cccn(-c3ccccc3F)c2=O)nn2c(C(=O)N[C@H]3C[C@@H]4CCO[C@@H]43)cnc12 [Compound 45],,≥ 1000,
< 10,CNc1cc(Nc2cccc3c2OCCC3)nc2c(C(=O)N[C@@H]3C[C@H]4CCO[C@H]43)cnn12 (racemic) [Compound 27],,< 10,
10 to 100,[2H]C([2H])([2H])Nc1cc(Nc2cccn(-c3ccn(C([2H])([2H])[2H])n3)c2=O)nn2c(C(=O)N[C@@H]3C[C@H]4CCO[C@H]43)cnc12 [Compound 53],,< 10,
10 to 100,"[2H]C([2H])([2H])Nc1cc(Nc2cccn(C3CC4(CCOC4)C3)c2=O)nc2c(C(=O)N[C@@H]3C[C@H]4CCO[C@H]43)cnn12 (single isomer, unassigned) [Compound 97b]",10 to 100,,
10 to 100,[2H]C([2H])([2H])Nc1cc(Nc2cccn([C@H]3C[C@@H](OC([2H])([2H])[2H])C3)c2=O)nn2c(C(=O)N[C@@H]3C[C@H]4CCO[C@H]43)cnc12 [Compound 87],,10 to 100,
10 to 100,"[2H]C([2H])([2H])Nc1cc(Nc2cccn(C3CCCC4(COC4)C3)c2=O)nn2c(C(=O)N[C@@H]3C[C@H]4CCO[C@H]43)cnc12 (single isomer, unassigned) [Compound 68b]",< 10,,
,"CNc1cc(Nc2cccn(-c3ccccn3)c2=O)nn2c(C(=O)N[C@@H]3C[C@H]4CCO[C@H]43)cnc12 [Compound 2, N-((1R,5S,7R)-2-oxabicyclo[3.2.0]heptan-7-yl)-8-(methylamino)-6-((2-oxo-2H-[1,2′-bipyridin]-3-yl)amino)imidazo[1,2-b]pyridazine-3-carboxamide]",,10 to 100,
10 to 100,"[2H]C([2H])([2H])Nc1cc(Nc2cccn(C3CC4(CCOC4)C3)c2=O)nn2c(C(=O)N[C@@H]3C[C@H]4CCO[C@H]43)cnc12 (single isomer, unassigned) [Compound 96b]",10 to 100,,
10 to 100,"CNc1cc(Nc2cccn(-c3ccn(C)n3)c2=O)nn2c(C(=O)NC(C)c3ncco3)cnc12 (single isomer, unassigned) [Compound 49a]",< 10,,
10 to 100,CNc1cc(Nc2cccc3c2OCCC3)nn2c(C(=O)N[C@@H]3C[C@@H]4CCO[C@@H]43)cnc12 (racemic) [Compound 24],,10 to 100,
10 to 100,"CNc1cc(Nc2cccn(-c3ccccn3)c2=O)nc2c(C(=O)NC(C)c3ncco3)cnn12 (single isomer, unassigned) [Compound 36b]",10 to 100,,
10 to 100,CNc1cc(Nc2cccn(-c3ccccc3F)c2=O)nn2c(C(=O)N[C@@H]3C[C@H]4CCO[C@H]43)cnc12 [Compound 44],,< 10,
10 to 100,"CNc1cc(Nc2cccn(C3CC(C)(OC)C3)c2=O)nn2c(C(=O)N[C@@H]3C[C@H]4CCO[C@H]43)cnc12 (single isomer, unassigned) [Compound 92a]",,10 to 100,

IC50 [2] [nM],Compound,"IC50 [1, 3] [nM]","IC50 [1, 4] [nM]","IC50 ([1]; HEK-Blue IL-23 cells, numeric value (control)) [nM]"
10 to 100,"CNc1cc(Nc2cccn(CC3CCCO3)c2=O)nn2c(C(=O)N[C@@H]3C[C@H]4CCO[C@H]43)cnc12 (single isomer, unassigned) [Compound 62b]",10 to 100,,
,"[2H]C([2H])([2H])Nc1cc(Nc2cccn(-c3ccccn3)c2=O)nn2c(C(=O)N[C@@H]3C[C@H]4CCO[C@H]43)cnc12 [Compound 4a, N-((1R,5S,7R)-2-oxabicyclo[3.2.0]heptan-7-yl)-8-((methyl-d3)amino)-6-((2-oxo-2H-[1,2′-bipyridin]-3-yl)amino)imidazo[1,2-b]pyridazine-3-carboxamide]",,10 to 100,
10 to 100,"CNc1cc(Nc2cccn([C@H]3CC[C@H](OC)CC3)c2=O)nn2c(C(=O)N[C@@H]3C[C@@H]3F)cnc12 [Compound 16, N-((1R,2S)-2-fluorocyclopropyl)-6-((1-((1r,4r)-4-methoxycyclohexyl)-2-oxo-1,2-dihydropyridin-3-yl)amino)-8-(methylamino)imidazo[1,2-b]pyridazine-3-carboxamide]",,< 10,
,"[2H]C([2H])([2H])Nc1cc(Nc2cccn(-c3ccccn3)c2=O)nn2c(C(=O)N[C@H]3C[C@@H]4CCO[C@@H]43)cnc12 [Compound 4b, N-((1S,5R,7S)-2-oxabicyclo[3.2.0]heptan-7-yl)-8-((methyl-d3)amino)-6-((2-oxo-2H-[1,2′-bipyridin]-3-yl)amino)imidazo[1,2-b]pyridazine-3-carboxamide]",,≥ 1000,
,CNc1cc(Nc2cccn(-c3ccn(C)n3)c2=O)nc2c(C(=O)NC(C)c3ncco3)cnn12 (racemic) [Compound 48],,10 to 100,
< 10,"[2H]C([2H])([2H])Nc1cc(Nc2cccn([C@H]3CC[C@H](OC([2H])([2H])[2H])CC3)c2=O)nn2c(C(=O)N[C@@H]3C[C@H]4CCO[C@H]43)cnc12 [Compound 11, N-((1R,5S,7R)-2-oxabicyclo[3.2.0]heptan-7-yl)-6-((1-((1r,4R)-4-(methoxy-d3)cyclohexyl)-2-oxo-1,2-dihydropyridin-3-yl)amino)-8-((methyl-d3)amino)imidazo[1,2-b]pyridazine-3-carboxamide]",,,
,[2H]C([2H])([2H])Nc1cc(Nc2cccn(C3CCC4(CC3)COC4)c2=O)nc2c(C(=O)N[C@@H]3C[C@@H]3F)cnn12 [Compound 74],,10 to 100,
,[2H]C([2H])([2H])Nc1cc(Nc2cccn(C3C[C@H]4CC[C@@H](C3)O4)c2=O)nc2c(C(=O)N[C@@H]3C[C@H]4CCO[C@H]43)cnn12 (some centres unmarked) [Compound 77],,10 to 100,
,"[2H]C([2H])([2H])NC(=O)c1nnc(NC(=O)C2CC2)cc1Nc1cccc(-c2ncn(C)n2)c1OC [BMS-986165, reference compound]",,,5.93
,"CNc1cc(Nc2cccn(C3CC(C)(OC)C3)c2=O)nn2c(C(=O)N[C@@H]3C[C@H]4CCO[C@H]43)cnc12 (single isomer, unassigned) [Compound 92b]",10 to 100,,
,[2H]C([2H])([2H])Nc1cc(Nc2cccn(C3C[C@H]4CC[C@@H](C3)O4)c2=O)nn2c(C(=O)N[C@@H]3C[C@H]4CCO[C@H]43)cnc12 (some centres unmarked) [Compound 78],,10 to 100,
,CNc1cc(Nc2cccn(-c3cc(C)on3)c2=O)nn2c(C(=O)NC3C[C@H]4CCOC34)cnc12 (mixture of isomers) [Compound 56],,10 to 100,
,[2H]C([2H])([2H])Nc1cc(Nc2cccn([C@H]3CC[C@@H](OC)CC3)c2=O)nn2c(C(=O)N[C@@H]3C[C@@H]3F)cnc12 [Compound 71],,10 to 100,
,[2H]C([2H])([2H])Nc1cc(Nc2cccn(C3CCC4(CC3)COC4)c2=O)nc2c(C(=O)N[C@@H]3C[C@H]4CCO[C@H]43)cnn12 [Compound 67],,10 to 100,
,CNc1cc(Nc2cccn(-c3ccn(C)n3)c2=O)nc2c(C(=O)NC3C[C@@H]4CCOC34)cnn12 (mixture of isomers) [Compound 50],,100 to 1000,
,"CNc1cc(Nc2cccn(-c3ccn(C)n3)c2=O)nn2c(C(=O)N[C@H]3C[C@@H]4CCO[C@@H]43)cnc12 [Compound 3b, N-((1S,5R,7S)-2-oxabicyclo[3.2.0]heptan-7-yl)-6-((1-(1-methyl-1H-pyrazol-3-yl)-2-oxo-1,2-dihydropyridin-3-yl)amino)-8-(methylamino)imidazo[1,2-b]pyridazine-3-carboxamide]",,100 to 1000,
,[2H]C([2H])([2H])Nc1cc(Nc2cccc(N3CCCC3=O)n2)nn2c(C(=O)NC3C[C@@H]4CCOC34)cnc12 (mixture of isomers) [Compound 30],,10 to 100,
,CNc1cc(Nc2cccn(-c3nn(C)cc3F)c2=O)nn2c(C(=O)N[C@@H]3C[C@@H]3F)cnc12 [Compound 60],,10 to 100,
,[2H]C([2H])([2H])Nc1cc(Nc2cccn(-c3ccccn3)c2=O)nn2c(C(=O)N[C@@H]3C[C@@H]3F)cnc12 [Compound 39],< 10,,
